# Reference: patent US20230355622A1, “METHODS OF CHEMOVACCINATION AGAINST PLASMODIUM INFECTIONS” (Merck Sharp & Dohme LLC, priority 2020, published 2023)
# System: parasite
# Assay: Parasite LDH growth assay (Parasite Assay), antiparasite potency
# Format: cell-based
# Details: 72 h, parasite LDH growth assay, ring stage parasites, 72 hours incubation at 37° C.; read-out: EC50
# Experimental: Assessing Antiparasite Potency in a Parasite LDH Growth Assay (Parasite Assay)
# The parasite stock was maintained at 4% haematocrit in RPMI-Hepes media buffered with sodium bicarbonate and supplemented with 5% heat inactivated human serum and 0.5% albumax.
# On the day of assay set up, a blood smear of the parasite culture was Giemsa stained and counted. The parasitemia was adjusted to 0.7% rings and the haematocrit was diluted to 2% in RPMI-Hepes media buffered with sodium bicarbonate and supplemented with 5% heat inactivated human serum and 0.5% albumax. 30 ul of diluted parasites are then added into 10 ul of media+compound in pre-prepared Greiner TC assay plates. Parasite assay plates were placed in gassed humidified boxes in single layer and allowed to incubate at 37° C. for 72 hours. After 72 hours growth, assay plates are sealed with parafilm and frozen flat, in single file at −80° C. overnight. On the following day, assay plates are allowed to thaw at room temperature for 4 hours to which an LDH assay is performed to measure parasite growth.
compound,measurement,value
"CCC1(CC)CC(=O)N([C@H]2c3cc(C(=O)N[C@@H]4c5ccccc5C[C@H]4O)ccc3OC[C@@H]2C)C(=N)N1 [Example 120, (3R,4R)-4-(4,4-diethyl-2-imino-6-oxo-hexahydropyrimidin-1-yl)-N-[(1R,2R)-2-hydroxyindan-1-yl]-3-methyl-chromane-6-carboxamide]",EC50,0.8 nM
"CC[C@]1(C)CC(=O)N([C@@H]2CCc3ccc(C(=O)N[C@@H]4c5ccccc5OC(C)(C)[C@H]4O)cc32)C(=N)N1 [Example 121, (3R)-3-[(4R)-4-ethyl-2-imino-4-methyl-6-oxo-hexahydropyrimidin-1-yl]-N-[(3S,4R)-3-hydroxy-2,2-dimethyl-chroman-4-yl]indane-5-carboxamide]",EC50,0.6 nM
"CC[C@]1(C)CC(=O)N([C@@H]2C[C@@H](C)c3ccc(C(=O)N[C@@H]4c5ccccc5OC[C@@]4(C)O)cc32)C(=N)N1 [Example 131, (1R,3R)-3-[(4R)-4-ethyl-2-imino-4-methyl-6-oxo-hexahydropyrimidin-1-yl]-N-[(3S,4R)-3-hydroxy-3-methyl-chroman-4-yl]-1-methyl-indane-5-carboxamide]",EC50,2 nM
"C[C@@H]1Cc2ccc(C(=O)N[C@@H]3c4ccccc4OC(C)(C)[C@H]3O)cc2[C@@H]1N1C(=N)NC(C)(C)CC1=O [Example 135, (2R,3R)-N-[(3S,4R)-3-hydroxy-2,2-dimethyl-chroman-4-yl]-3-(2-imino-4,4-dimethyl-6-oxo-hexahydropyrimidin-1-yl)-2-methyl-indane-5-carboxamide]",EC50,0.9 nM
"C[C@@H]1C[C@@H](N2C(=N)NC(C)(C)CC2=O)c2cc(C(=O)N[C@@H]3c4ccccc4OC(C)(C)[C@H]3O)ccc21 [Example 138, (1R,3R)-N-[(3S,4R)-3-hydroxy-2,2-dimethyl-chroman-4-yl]-3-(2-imino-4,4-dimethyl-6-oxo-hexahydropyrimidin-1-yl)-1-methyl-indane-5-carboxamide]",EC50,0.9 nM
"CCC1(CC)CC(=O)N([C@@H]2CCOc3ccc(C(=O)N[C@@H]4c5ccccc5C5(CC5)[C@H]4O)cc32)C(=N)N1 [Example 154, (4R)-4-(4,4-diethyl-2-imino-6-oxo-hexahydropyrimidin-1-yl)-N-[(1′R,2′R)-2′-hydroxyspiro[cyclopropane-1,3′-indane]-1′-yl]chromane-6-carboxamide]",EC50,0.7 nM
"CCC1(CC)CC(=O)N([C@@H]2C[C@H](OC)c3ccc(C(=O)N[C@@H]4c5ccccc5C[C@@]4(C)O)cc32)C(=N)N1 [Example 158, (1S,3R)-3-(4,4-diethyl-2-imino-6-oxo-hexahydropyrimidin-1-yl)-N-[(1R,2R)-2-hydroxy-2-methyl-indan-1-yl]-1-methoxy-indane-5-carboxamide]",EC50,0.9 nM
"CCC1(CC)CC(=O)N([C@@H]2CCc3ccc(C(=O)N[C@@H]4c5ccccc5OC(C)(C)[C@H]4O)cc32)C(=N)N1 [Example 159, (3R)-3-(4,4-diethyl-2-imino-6-oxo-hexahydropyrimidin-1-yl)-N-[(3S,4R)-3-hydroxy-2,2-dimethyl-chroman-4-yl]indane-5-carboxamide]",EC50,0.5 nM
"CCC1(CC)CC(=O)N(C2CCCc3ccc(C(=O)N[C@@H]4c5ccccc5OC[C@@]4(C)O)cc32)C(=N)N1 (stereo partly drawn) [Example 161, 8-(4,4-diethyl-2-imino-6-oxotetrahydropyrimidin-1(2H)-yl)-N-((3S,4R)-3-hydroxy-3-methylchroman-4-yl)-5,6,7,8-tetrahydronaphthalene-2-carboxamide]",EC50,0.8 nM
"CC[C@]1(C)CC(=O)N([C@H]2c3cc(C(=O)N[C@@H]4c5ccccc5OC(C)(C)[C@H]4O)ccc3C[C@H]2C)C(=N)N1 [Example 168, (2R,3R)-3-[(4R)-4-ethyl-2-imino-4-methyl-6-oxo-hexahydropyrimidin-1-yl]-N-[(3S,4R)-3-hydroxy-2,2-dimethyl-chroman-4-yl]-2-methyl-indane-5-carboxamide]",EC50,0.4 nM
